Assay results: patent US20010014682A1, “Fibrinogen receptor antagonists” (SmithKline Beecham Corporation, priority 1997, published 2001)

Molecular target: T1, fibrinogen receptor (GPIIb-IIIa) (Homo sapiens, UniProt P05106+P08514)
T1 construct: The lectin-retained GPIIb-IIIa was eluted with buffer A containing 10% dextrose; tissue Red Cross; host or cells: human platelets
Experiment: Competitive binding to GPIIb-IIIa using [3H]-SK&F-107260 as RGD-type ligand
Conditions: read-out: Ki for inhibition of [3H]-SK&F 107260 binding

T1 sequence (P08514 32-887 limits assumed): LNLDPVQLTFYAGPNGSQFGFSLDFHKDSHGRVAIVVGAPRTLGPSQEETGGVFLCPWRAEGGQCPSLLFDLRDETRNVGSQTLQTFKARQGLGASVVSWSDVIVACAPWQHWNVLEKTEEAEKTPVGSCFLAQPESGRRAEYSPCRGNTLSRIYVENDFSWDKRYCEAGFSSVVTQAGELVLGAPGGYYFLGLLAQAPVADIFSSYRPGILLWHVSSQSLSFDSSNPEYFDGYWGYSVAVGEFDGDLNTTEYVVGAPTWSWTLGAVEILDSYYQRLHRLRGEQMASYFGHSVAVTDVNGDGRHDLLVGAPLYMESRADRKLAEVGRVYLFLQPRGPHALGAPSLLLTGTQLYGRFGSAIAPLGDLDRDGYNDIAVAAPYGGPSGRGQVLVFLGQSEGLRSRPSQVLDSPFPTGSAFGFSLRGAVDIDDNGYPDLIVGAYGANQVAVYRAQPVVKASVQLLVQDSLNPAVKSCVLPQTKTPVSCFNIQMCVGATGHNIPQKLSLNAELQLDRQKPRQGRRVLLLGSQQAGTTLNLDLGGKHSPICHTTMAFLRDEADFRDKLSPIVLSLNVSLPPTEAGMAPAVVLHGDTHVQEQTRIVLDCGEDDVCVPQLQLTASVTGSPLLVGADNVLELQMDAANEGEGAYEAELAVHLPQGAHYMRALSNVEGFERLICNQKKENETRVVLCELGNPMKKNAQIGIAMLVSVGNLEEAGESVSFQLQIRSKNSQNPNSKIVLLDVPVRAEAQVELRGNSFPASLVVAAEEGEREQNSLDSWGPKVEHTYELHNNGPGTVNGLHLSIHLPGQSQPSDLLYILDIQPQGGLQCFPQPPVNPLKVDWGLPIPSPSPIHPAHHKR
T1 sequence (P08514 891-1039 limits assumed): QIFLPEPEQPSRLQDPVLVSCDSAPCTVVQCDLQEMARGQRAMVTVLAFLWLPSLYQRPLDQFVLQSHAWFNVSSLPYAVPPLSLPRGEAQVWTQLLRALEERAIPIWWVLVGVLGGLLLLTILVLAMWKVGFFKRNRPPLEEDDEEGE
T1 sequence (P05106 27-788): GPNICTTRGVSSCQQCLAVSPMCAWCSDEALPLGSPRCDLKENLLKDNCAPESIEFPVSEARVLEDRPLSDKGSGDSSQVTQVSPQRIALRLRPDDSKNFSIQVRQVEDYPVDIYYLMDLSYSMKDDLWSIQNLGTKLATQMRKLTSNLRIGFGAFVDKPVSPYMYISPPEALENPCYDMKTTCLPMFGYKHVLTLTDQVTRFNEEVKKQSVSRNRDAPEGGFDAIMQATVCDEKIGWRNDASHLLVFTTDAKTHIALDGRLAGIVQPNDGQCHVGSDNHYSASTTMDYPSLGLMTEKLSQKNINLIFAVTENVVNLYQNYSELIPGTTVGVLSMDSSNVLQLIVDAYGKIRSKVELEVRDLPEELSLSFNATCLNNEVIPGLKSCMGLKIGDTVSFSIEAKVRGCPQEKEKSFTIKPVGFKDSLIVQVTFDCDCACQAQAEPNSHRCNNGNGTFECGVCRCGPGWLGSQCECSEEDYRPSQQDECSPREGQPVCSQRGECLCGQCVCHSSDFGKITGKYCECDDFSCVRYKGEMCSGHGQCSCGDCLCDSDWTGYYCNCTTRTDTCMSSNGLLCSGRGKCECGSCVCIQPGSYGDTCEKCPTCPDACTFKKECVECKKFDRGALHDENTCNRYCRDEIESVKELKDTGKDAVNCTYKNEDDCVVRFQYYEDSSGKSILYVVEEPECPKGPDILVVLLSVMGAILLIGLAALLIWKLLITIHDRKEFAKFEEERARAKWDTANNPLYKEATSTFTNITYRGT

- Ki: ~3.5 nM
Compound: O=C(Nc1ccc(N2CCNCC2)cc1)C1CCN(C(C(=O)O)c2ccccc2)CC1 (stereo not shown) [Example 1, 4-[(4-(1-piperizinyl)phenyl)aminocarbonyl]-1-piperidine-1-phenylacetic Acid]
